Patent US20090099029A1, “Methods and substrates for conducting assays” (Invitrogen Corporation, priority 2005, published 2009)

Key:
kinases of Table 5 [1] = target: kinases of Table 5 (Homo sapiens, UniProt Q9Y6R4); assay: Further analysis of a plurality of inhibitors and a plurality of kinases (Table 5 inhibition results); type: biochemical; design: scale not given here; conditions: kinase MAP3K4 (Part I, plate E7, Domain 1); inhibitor 100 uM
Source text: (§1) The wash solution is then discarded.

kinases of Table 5 [2] = target: T1, kinases of Table 5 (Homo sapiens, UniProt O14965); assay: as above; type: biochemical; design: scale not given here; conditions: kinase STK6 (Part I, plate C6, Domain 1)
T1 sequence (O14965 1-403): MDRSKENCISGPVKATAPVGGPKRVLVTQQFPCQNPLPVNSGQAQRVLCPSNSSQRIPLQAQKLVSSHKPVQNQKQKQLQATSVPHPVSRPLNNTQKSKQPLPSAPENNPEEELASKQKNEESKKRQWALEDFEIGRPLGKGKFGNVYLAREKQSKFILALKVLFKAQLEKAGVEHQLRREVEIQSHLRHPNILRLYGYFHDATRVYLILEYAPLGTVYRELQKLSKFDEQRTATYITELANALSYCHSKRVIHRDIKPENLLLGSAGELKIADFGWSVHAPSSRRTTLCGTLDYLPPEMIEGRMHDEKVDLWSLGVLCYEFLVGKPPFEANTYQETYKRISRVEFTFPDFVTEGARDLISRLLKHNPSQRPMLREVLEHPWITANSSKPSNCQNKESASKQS
Source text: as §1

kinases of Table 5 [3] = target: T2, kinases of Table 5 (Homo sapiens, UniProt Q13043); assay: as above; type: biochemical; design: scale not given here; conditions: for Inhibition level: kinase STK4; for Inhibition Results (Level): kinase STK4 (Part II, plate D6, Domain 1)
T2 sequence (Q13043 1-487): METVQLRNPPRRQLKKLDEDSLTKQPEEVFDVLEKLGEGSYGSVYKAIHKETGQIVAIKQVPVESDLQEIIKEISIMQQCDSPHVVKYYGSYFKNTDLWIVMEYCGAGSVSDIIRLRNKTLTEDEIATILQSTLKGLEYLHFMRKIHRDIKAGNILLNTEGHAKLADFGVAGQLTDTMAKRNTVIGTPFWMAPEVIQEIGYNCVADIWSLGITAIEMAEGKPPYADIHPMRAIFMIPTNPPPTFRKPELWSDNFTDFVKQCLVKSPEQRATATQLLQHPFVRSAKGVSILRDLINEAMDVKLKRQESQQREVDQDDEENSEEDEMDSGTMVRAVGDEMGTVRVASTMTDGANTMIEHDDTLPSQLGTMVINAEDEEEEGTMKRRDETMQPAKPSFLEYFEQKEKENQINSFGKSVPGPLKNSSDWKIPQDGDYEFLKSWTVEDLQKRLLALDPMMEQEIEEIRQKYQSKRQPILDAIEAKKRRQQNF
Source text: as §1

kinases of Table 5 [4] = target: kinases of Table 5 (Homo sapiens, UniProt Q14289); assay: as above; type: biochemical; design: scale not given here; conditions: kinase PTK2B (Part I, plate G5, Domain 1)
kinases of Table 5 (Homo sapiens, UniProt Q14289), sequence (Q14289 whole entry): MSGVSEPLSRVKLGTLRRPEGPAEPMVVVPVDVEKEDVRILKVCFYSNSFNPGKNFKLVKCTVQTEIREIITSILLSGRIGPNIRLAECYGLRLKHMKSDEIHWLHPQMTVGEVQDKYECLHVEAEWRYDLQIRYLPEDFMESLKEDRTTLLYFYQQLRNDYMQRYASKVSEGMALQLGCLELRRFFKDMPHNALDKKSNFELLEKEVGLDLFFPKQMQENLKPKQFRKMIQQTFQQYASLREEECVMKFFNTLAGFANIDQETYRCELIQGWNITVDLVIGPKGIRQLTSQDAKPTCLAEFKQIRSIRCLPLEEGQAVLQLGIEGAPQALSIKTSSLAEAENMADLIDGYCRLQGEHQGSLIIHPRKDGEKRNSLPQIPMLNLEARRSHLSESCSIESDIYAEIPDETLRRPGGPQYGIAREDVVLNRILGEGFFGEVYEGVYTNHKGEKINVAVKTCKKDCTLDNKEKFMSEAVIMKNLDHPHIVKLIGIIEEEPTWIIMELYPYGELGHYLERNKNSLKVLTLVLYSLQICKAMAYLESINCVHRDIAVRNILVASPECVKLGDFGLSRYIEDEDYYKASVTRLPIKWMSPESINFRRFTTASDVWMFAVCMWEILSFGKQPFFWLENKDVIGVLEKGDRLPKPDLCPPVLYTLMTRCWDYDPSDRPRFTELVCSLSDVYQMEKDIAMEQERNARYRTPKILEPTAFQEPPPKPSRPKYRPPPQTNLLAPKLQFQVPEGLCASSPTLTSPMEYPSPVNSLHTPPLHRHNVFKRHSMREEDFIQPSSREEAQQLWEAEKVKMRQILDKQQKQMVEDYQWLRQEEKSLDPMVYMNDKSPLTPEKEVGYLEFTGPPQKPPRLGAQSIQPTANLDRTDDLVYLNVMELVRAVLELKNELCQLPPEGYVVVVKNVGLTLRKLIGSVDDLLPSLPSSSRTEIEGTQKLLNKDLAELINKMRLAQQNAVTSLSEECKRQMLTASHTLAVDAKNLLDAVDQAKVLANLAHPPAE
Source text: as §1

kinases of Table 5 [5] = target: T3, kinases of Table 5 (Homo sapiens, UniProt Q08881); assay: as above; type: biochemical; design: scale not given here; conditions: kinase ITK (Part I, plate E4, Domain 0); inhibitor 100 uM
T3 sequence (Q08881 1-620): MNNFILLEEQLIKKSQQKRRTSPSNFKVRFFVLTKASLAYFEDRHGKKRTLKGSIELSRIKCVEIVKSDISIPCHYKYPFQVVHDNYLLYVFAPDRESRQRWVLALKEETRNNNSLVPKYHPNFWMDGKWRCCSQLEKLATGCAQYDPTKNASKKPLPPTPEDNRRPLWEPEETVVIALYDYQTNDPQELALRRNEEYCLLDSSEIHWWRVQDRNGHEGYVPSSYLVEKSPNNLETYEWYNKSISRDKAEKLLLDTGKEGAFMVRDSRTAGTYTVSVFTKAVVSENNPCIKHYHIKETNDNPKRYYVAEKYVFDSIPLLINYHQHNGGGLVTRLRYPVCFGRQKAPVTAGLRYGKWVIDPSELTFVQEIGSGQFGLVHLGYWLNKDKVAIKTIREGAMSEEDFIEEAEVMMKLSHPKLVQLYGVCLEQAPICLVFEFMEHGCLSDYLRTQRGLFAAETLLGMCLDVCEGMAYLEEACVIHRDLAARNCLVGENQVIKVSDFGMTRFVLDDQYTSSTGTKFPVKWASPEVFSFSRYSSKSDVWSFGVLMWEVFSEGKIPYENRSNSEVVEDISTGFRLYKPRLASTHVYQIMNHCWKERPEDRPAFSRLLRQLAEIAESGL
Source text: as §1

kinases of Table 5 [6] = target: kinases of Table 5 (Homo sapiens, UniProt P09769); assay: as above; type: biochemical; design: scale not given here; conditions: for Inhibition level: kinase FGR; for Inhibition Results (Level): kinase FGR (Part II, plate B10, Domain 0)
kinases of Table 5 (Homo sapiens, UniProt P09769), sequence (P09769 whole entry): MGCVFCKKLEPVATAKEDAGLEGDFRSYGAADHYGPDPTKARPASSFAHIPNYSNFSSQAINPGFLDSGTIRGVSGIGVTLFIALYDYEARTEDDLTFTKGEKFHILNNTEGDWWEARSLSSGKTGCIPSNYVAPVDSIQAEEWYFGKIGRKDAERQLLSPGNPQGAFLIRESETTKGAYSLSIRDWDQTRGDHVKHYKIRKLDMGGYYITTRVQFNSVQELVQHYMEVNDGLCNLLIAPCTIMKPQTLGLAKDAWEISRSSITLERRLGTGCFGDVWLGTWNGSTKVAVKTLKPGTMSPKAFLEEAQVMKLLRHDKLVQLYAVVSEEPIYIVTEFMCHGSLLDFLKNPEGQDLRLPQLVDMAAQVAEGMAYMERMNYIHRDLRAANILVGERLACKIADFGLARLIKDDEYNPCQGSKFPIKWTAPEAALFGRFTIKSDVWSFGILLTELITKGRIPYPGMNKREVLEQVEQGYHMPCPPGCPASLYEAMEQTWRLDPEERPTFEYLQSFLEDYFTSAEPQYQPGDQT
Source text: as §1

kinases of Table 5 [7] = target: kinases of Table 5 (Homo sapiens, UniProt Q8IVW4); assay: as above; type: biochemical; design: scale not given here; conditions: inhibitor 100 uM; for Inhibition level: kinase CDKL3; for Inhibition Results (Level): kinase CDKL3 (Part II, plate F12, Domain 0)
kinases of Table 5 (Homo sapiens, UniProt Q8IVW4), sequence (Q8IVW4 whole entry): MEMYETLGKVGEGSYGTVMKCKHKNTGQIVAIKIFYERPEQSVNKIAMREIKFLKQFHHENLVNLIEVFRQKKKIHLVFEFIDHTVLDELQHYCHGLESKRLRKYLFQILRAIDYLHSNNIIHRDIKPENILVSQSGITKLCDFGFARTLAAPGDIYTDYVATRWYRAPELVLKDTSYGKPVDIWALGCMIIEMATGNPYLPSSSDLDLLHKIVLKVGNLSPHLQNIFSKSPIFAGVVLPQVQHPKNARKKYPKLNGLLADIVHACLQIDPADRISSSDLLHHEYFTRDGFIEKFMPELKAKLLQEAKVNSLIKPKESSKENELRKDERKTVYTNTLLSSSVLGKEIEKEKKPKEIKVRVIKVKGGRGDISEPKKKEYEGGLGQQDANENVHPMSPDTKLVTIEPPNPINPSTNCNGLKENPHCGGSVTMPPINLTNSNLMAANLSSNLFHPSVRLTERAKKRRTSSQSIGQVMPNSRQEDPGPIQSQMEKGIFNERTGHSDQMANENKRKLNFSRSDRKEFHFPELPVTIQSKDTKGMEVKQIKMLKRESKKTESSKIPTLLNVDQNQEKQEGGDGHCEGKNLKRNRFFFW
Source text: as §1

kinases of Table 5 [8] = target: T4, kinases of Table 5 (Homo sapiens, UniProt Q96KB5); assay: as above; type: biochemical; design: scale not given here; conditions: kinase TOPK (Part I, plate G7, Domain 1)
T4 sequence (Q96KB5 1-322): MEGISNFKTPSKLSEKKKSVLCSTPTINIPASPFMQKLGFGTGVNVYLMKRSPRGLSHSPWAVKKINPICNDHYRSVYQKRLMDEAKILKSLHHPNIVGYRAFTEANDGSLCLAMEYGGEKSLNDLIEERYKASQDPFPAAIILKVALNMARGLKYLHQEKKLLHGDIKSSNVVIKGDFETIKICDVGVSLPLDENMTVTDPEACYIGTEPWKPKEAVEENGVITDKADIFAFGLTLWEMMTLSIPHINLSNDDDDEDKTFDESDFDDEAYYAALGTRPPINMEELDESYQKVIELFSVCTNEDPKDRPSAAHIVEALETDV
Source text: as §1

kinases of Table 5 [9] = target: kinases of Table 5 (Homo sapiens, UniProt Q86UE8); assay: as above; type: biochemical; design: scale not given here; conditions: kinase TLK2 (Part I, plate C8, Domain 1)
kinases of Table 5 (Homo sapiens, UniProt Q86UE8), sequence (Q86UE8 whole entry): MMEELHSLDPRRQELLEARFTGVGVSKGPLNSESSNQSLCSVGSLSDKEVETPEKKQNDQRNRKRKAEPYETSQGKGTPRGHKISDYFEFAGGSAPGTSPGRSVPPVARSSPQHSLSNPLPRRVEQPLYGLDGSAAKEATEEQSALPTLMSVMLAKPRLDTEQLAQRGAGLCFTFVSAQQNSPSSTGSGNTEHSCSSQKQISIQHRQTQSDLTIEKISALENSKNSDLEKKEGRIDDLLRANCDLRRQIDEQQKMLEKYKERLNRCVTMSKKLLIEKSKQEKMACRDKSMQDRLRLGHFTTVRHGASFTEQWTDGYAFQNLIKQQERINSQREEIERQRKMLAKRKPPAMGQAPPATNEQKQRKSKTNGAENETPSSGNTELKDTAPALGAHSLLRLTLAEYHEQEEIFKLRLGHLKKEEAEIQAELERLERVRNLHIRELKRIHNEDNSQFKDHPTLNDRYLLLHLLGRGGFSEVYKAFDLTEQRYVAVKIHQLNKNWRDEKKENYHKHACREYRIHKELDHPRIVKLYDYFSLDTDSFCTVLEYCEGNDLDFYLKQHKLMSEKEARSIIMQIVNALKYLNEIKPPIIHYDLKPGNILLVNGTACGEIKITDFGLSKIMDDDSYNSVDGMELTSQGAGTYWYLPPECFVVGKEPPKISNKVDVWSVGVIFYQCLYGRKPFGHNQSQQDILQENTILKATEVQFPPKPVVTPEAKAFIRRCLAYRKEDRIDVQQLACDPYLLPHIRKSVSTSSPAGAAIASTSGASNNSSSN
Source text: as §1

kinases of Table 5 [10] = target: kinases of Table 5 (Homo sapiens, UniProt Q8IU85); assay: as above; type: biochemical; design: scale not given here; conditions: inhibitor 100 uM; for Inhibition level: kinase LOC57118; for Inhibition Results (Level): kinase LOC57118 (Part II, plate D2, Domain 1)
kinases of Table 5 (Homo sapiens, UniProt Q8IU85), sequence (Q8IU85 whole entry): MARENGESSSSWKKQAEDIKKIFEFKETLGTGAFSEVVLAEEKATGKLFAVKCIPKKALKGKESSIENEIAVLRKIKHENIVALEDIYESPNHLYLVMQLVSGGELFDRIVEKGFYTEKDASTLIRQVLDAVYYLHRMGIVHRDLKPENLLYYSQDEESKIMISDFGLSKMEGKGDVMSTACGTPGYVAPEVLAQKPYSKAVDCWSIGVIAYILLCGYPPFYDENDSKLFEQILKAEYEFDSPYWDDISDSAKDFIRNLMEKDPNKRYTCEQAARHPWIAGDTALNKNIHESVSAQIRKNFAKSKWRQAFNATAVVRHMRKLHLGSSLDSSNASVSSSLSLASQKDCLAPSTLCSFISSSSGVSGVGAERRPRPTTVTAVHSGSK
Source text: as §1

39 kinases (Table 4) = conditions: known general specificities of the inhibitors; cited from earlier work

kinases of Table 5 (Homo sapiens, UniProt Q9Y6R4), sequence (Q9Y6R4 whole entry): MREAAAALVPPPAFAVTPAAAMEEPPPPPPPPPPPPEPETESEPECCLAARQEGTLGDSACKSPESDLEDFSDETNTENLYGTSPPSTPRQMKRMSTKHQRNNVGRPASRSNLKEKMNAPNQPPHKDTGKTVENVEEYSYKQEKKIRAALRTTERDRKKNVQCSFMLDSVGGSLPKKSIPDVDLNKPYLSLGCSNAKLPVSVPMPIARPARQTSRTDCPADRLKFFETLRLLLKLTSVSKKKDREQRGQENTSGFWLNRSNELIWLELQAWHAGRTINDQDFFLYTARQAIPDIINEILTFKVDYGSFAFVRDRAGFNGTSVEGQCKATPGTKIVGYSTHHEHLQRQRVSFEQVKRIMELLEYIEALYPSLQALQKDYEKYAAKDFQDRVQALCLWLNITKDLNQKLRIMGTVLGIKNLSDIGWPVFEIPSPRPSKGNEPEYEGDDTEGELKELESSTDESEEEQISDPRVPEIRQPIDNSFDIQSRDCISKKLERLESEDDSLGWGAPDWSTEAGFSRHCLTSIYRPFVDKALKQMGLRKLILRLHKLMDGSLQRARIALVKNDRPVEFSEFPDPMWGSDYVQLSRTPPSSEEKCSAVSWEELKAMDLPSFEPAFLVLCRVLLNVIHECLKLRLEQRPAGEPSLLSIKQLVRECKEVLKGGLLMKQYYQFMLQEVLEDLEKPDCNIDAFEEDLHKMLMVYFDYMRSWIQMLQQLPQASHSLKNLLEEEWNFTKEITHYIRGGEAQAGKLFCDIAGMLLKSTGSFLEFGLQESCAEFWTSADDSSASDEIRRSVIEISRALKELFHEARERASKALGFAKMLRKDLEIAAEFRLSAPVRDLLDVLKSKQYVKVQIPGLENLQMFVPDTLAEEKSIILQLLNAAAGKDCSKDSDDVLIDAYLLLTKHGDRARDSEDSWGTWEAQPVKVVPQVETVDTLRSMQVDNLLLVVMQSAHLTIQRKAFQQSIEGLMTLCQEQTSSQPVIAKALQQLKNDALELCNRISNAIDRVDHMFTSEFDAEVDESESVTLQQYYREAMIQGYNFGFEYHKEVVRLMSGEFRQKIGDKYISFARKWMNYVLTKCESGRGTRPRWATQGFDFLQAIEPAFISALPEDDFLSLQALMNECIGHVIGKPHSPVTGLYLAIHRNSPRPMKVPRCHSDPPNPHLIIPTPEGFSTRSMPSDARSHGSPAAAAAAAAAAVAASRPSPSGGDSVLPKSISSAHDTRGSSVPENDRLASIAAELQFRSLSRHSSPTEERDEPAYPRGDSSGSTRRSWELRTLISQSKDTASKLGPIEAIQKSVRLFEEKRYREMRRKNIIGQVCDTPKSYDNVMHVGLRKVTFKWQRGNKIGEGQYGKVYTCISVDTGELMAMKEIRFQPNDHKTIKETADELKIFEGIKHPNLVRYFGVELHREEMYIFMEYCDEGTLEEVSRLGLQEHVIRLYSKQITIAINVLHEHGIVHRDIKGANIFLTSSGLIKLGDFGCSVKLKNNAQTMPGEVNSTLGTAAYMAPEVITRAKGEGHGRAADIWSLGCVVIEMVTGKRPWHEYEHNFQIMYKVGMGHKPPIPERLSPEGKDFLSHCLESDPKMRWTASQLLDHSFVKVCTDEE

Structure (SMILES) | Inhibition Results (Level) (kinases of Table 5 [1]) | Inhibition Results (Level) (kinases of Table 5 [2]; inhibitor 100 uM) | Inhibition level (kinases of Table 5 [3]; inhibitor 100 uM) | Inhibition Results (Level) (kinases of Table 5 [4]; inhibitor 100 uM) | Inhibition Results (Level) (kinases of Table 5 [5]) | Inhibition level (kinases of Table 5 [6]; inhibitor 100 uM) | Inhibition level (kinases of Table 5 [7]) | Inhibition Results (Level) (kinases of Table 5 [8]; inhibitor 100 uM) | Inhibition Results (Level) (kinases of Table 5 [9]; inhibitor 100 uM) | Inhibition level (kinases of Table 5 [10]) | General Specificity (39 kinases (Table 4)) | Inhibition level (kinases of Table 5 [3]; concentration not given) | Inhibition level (kinases of Table 5 [6]; concentration not given) | Inhibition Results (Level) (kinases of Table 5 [3]; inhibitor 100 uM) | Inhibition Results (Level) (kinases of Table 5 [6]; inhibitor 100 uM) | Inhibition Results (Level) (kinases of Table 5 [7]) | Inhibition Results (Level) (kinases of Table 5 [10]) | other results
N#C/C(=C/c1ccc(O)c(O)c1)C(=O)NCc1ccccc1 [AG 490] | 2 | 2 | 0 | 2 | 1 | 2 | 2 | 2 | 2 | 1 | Tyrosine | – | – | – | – | – | – | –
COc1cc2ncnc(Nc3cccc(Cl)c3)c2cc1OC [AG 1478] | 1 | 0 | 1 | 2 | 1 | 2 | 1 | 1 | 2 | 0 | – | – | – | – | – | – | – | –
O=c1c(-c2ccc(O)cc2)coc2cc(O)cc(O)c12 [Genistein] | 1 | 2 | 0 | 2 | 2 | 2 | 0 | 2 | 2 | 0 | Tyrosine | 0 | 2 | – | – | – | – | Inhibition Results (Level) (kinases of Table 5 [2]; inhibitor <3.7 mM): 0; Inhibition Results (Level) (kinases of Table 5 [8]; inhibitor <3.7 mM): 0; Inhibition Results (Level) (kinases of Table 5 [9]; inhibitor <3.7 mM): 0
O=S(=O)(NCCNC/C=C/c1ccc(Br)cc1)c1cccc2cnccc12 [H-89] | 1 | 0 | – | 1 | 1 | – | – | 2 | 2 | – | Serine/threonine | – | – | 2 | 2 | 1 | 1 | –
CC(C)(C)n1nc(-c2ccc(Cl)cc2)c2c(N)ncnc21 [PP2] | 2 | 2 | 2 | 2 | 2 | 2 | 2 | 2 | 2 | 0 | Tyrosine | – | – | – | – | – | – | –
O=c1c(O)c(-c2ccc(O)c(O)c2)oc2cc(O)cc(O)c12 [Quercetin] | 0 | – | – | 1 | 0 | – | – | 0 | 0 | – | – | – | – | 0 | 2 | 0 | 0 | –
Cn1cc(C2=C(c3cn(CCCSC(=N)N)c4ccccc34)C(=O)NC2=O)c2ccccc21 [Ro-31-8220] | 2 | 2 | 2 | 2 | 2 | 2 | 2 | 0 | 1 | 0 | Serine/threonine | 0 | 2 | – | – | – | – | Inhibition Results (Level) (kinases of Table 5 [2]; inhibitor 90 uM): 0; Inhibition Results (Level) (kinases of Table 5 [4]; inhibitor 90 uM): 0; Inhibition Results (Level) (kinases of Table 5 [8]; inhibitor 90 uM): 2; Inhibition Results (Level) (kinases of Table 5 [9]; inhibitor 90 uM): 2
CC(=O)c1c(O)c(C)c(O)c(Cc2c(O)c3c(c(C(=O)/C=C/c4ccccc4)c2O)OC(C)(C)C=C3)c1O [Rottlerin (Mallotoxin)] | 1 | 2 | – | 2 | 1 | – | – | 2 | 2 | – | – | – | – | 0 | 2 | 1 | 0 | –
CN[C@@H]1C[C@H]2O[C@@](C)([C@@H]1OC)n1c3ccccc3c3c4c(c5c6ccccc6n2c5c31)C(=O)NC4 [Staurosporine] | – | – | – | – | – | – | – | – | – | – | Broad | 0 | 2 | – | – | – | – | Inhibition Results (Level) (kinases of Table 5 [2]; inhibitor 21.5 uM): 0; Inhibition Results (Level) (kinases of Table 5 [4]; inhibitor 21.5 uM): 0; Inhibition Results (Level) (kinases of Table 5 [8]; inhibitor 21.5 uM): 2; Inhibition Results (Level) (kinases of Table 5 [9]; inhibitor 21.5 uM): 2
